Assays:
Type in all cases: binding
FZD6 = molecular target: T1, FZD6 (Homo sapiens, UniProt O60353); assay: NanoBRET screen HiBiT-FZD6 in HEK293
T1 construct: purchased Promega (in-house HiBiT-GPCR construct library, NanoBRET)
T1 sequence (O60353 19-706): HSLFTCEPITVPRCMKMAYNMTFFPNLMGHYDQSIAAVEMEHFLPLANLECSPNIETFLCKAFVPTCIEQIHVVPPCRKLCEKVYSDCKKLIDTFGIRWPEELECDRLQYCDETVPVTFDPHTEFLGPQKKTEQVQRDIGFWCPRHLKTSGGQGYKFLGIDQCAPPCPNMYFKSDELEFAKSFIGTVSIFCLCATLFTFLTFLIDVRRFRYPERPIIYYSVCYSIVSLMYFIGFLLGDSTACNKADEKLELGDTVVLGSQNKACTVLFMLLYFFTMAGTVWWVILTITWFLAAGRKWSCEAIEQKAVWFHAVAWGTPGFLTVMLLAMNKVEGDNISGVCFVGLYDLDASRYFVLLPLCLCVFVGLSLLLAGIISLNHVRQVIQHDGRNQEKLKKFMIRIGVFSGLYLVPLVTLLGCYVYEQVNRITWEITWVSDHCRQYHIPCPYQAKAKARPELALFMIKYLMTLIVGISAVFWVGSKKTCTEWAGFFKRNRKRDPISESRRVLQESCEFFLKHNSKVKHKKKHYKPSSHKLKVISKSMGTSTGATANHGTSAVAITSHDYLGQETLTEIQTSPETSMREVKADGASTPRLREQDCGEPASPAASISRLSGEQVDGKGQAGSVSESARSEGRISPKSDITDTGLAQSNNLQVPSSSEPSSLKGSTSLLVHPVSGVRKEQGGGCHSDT
Procedure: (§1) Each tracer candidate was screened across the entire library of HiBiT-GPCR constructs using NanoBRET as the detection modality. As depicted in Figure 4A, the specificity of interactions was evaluated through decrease in BRET due to competitive displacement of a bound tracer by excess parental compound. Each tracer was analyzed for binding to each HiBiT-GPCR fusion in the absence and in the presence of competing parental compound. Briefly, HEK293 cells were transfected with HiBiT-GPCR constructs diluted into promoterless DNA to reduce expression and maximize translocation to the cell surface. Each tracer candidate was then screened at concentrations of 1 μM and 0.1 μM across cells expressing these fusions. Cells were treated for 1.5 h with tracer either alone or in the presence of 20 μM competing parental compound (i.e., control). BRET was measured upon addition of purified LgBiT and subsequent complementation with HiBiT genetically fused to a GPCR. The specificity of interactions was assessed through a decrease in BRET signal due to competitive displacement of the bound tracer. To further gauge the robustness of these interactions, the fold response over the control (i.e., BRETtracer/BRETcontrol) was calculated. We chose a 1.5-fold response, which translates to ≥7-fold signal over noise as the minimal threshold required to score an interaction as positive. […]. Below we highlight the screening results obtained for our exemplary fluorescent tracers based on Clozapine, Amitriptyline and AZD1283.
(§2) HiBiT-GPCR DNA constructs were diluted in 10 mM Tris pH 8 to a final concentration of 0.01 μg/μL, arrayed in 96-well plates and stored at −20 °C. For transfection, HEK293 cells were suspended in Opti-MEM (without phenol red) supplemented with 2% fetal bovine serum (Seradigm) and 100 units/mL penicillin–streptomycin (Gibco) at a final concentration of 220,000 cells/mL and dispensed into white 96-well plates at 90 μL/well. Subsequent transfections and screens were carried using an Agilent Bravo Automated Liquid Handling Platform. First, the 96-well HiBiT DNA arrays were diluted 25-fold in Opti-MEM (without serum or phenol red) to a final concentration of 0.0004 μg/μL and 20 μL of the diluted DNAs were transferred into new 96-well plates. Next, promoterless carrier DNA (1 μg/μL) was diluted 25-fold (0.04 μg/μL) and then dispensed into the diluted arrays at 20 μL/well. Following brief mixing, Viafect transfection reagent (Promega) diluted 16-fold into Opti-MEM was dispensed into the plates at 40 μL/well. After mixing by pipetting, plates were incubated for 10 min on the pipetting station deck. The DNA-transfection reagent complexes were then added to plates containing cells. To facilitate the screen, 10 μL of DNA-transfection reagent complexes were added in duplicates to the top 4 and bottom 4 rows, resulting in two identical 48-well arrays per plate. Plates with transfected cells were incubated for 18–20 h at 37 °C/5% CO2. A screen of each tracer across the entire library using two different concentrations requires duplicate plates of transfected cells. Depending on the number of tracers being screened, transfections can be scaled up using the same ratios. The next day, for each tracer, four 20× screening solutions in tracer dilution buffer (Promega) were prepared: two duplicates at final concentration of 20 μM and two duplicates at a final concentration of 2 μM. A competing unmodified compound was added to one of each duplicate at a final concentration of 400 μM. The four resulting solutions were diluted 4-fold in Opti-MEM without serum or phenol red to generate 5× solutions (5 µM and 0.5 µM tracer +/− 100 μM competing compound). To screen the library, a BioTek MultiFlo FX liquid dispenser was used to dispense 22.5 µL of tracer solution to the top 4 rows and 22.5 µL tracer + competing compound solution to the 4 bottom rows. Plates were briefly mixed on an orbital shaker and incubated for 1.5 h at room temperature. […]

SSTR2 = molecular target: T2, SSTR2 (Homo sapiens, UniProt P30874); assay: NanoBRET screen HiBiT-SSTR2 in HEK293
T2 construct: purchased Promega (in-house HiBiT-GPCR construct library, NanoBRET)
Procedure: as §1, §2

CCR7 = molecular target: T3, CCR7 (Homo sapiens, UniProt P32248); assay: NanoBRET screen HiBiT-CCR7 in HEK293
T3 construct: purchased Promega (in-house HiBiT-GPCR construct library, NanoBRET)
T3 sequence (P32248 25-378): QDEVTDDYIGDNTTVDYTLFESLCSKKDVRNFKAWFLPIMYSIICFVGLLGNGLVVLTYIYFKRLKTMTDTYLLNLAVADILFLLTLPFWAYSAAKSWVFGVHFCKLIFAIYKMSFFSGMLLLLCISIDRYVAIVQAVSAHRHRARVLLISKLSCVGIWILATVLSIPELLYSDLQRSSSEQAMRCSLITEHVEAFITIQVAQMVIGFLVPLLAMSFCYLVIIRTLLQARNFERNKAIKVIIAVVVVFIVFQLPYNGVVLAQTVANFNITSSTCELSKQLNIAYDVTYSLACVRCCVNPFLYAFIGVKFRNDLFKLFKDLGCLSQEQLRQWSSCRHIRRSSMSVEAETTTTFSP
Procedure: as §1, §2

HTR2A = molecular target: T4, HTR2A (Homo sapiens, UniProt P28223); assay: NanoBRET screen HiBiT-HTR2A in HEK293; conditions: HTR2A
T4 construct: purchased Promega (in-house HiBiT-GPCR construct library, NanoBRET)

[1] = tracer at 0.1μM, listed as amitriptyline-b-2-NB590

T4 sequence (P28223 whole entry): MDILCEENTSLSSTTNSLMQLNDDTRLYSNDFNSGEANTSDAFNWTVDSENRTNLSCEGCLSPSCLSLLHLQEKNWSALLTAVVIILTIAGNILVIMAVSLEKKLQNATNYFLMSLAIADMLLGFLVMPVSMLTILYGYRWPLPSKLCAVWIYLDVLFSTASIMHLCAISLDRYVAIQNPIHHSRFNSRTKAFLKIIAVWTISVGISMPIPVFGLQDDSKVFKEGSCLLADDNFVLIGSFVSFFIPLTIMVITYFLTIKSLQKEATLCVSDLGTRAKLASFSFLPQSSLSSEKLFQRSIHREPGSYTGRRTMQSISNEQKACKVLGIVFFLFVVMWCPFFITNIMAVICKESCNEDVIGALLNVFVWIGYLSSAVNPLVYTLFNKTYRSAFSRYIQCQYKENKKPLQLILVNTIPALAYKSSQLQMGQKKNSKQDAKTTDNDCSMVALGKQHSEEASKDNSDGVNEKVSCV
T2 sequence (P30874 whole entry): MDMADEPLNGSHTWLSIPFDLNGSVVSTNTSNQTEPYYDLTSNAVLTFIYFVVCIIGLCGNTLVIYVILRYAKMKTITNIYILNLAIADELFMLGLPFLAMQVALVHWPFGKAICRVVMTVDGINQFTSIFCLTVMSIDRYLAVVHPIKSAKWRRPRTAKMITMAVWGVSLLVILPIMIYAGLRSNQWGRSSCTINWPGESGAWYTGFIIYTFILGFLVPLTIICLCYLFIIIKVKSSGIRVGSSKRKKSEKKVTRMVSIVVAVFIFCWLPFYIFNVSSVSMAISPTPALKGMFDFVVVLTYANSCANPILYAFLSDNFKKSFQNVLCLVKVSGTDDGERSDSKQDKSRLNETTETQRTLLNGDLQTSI

CCOC(=O)c1cc(C#N)c(N2CCC(C(=O)NS(=O)(=O)Cc3ccccc3/C=C/C(=O)NCCNC(=O)CCc3ccc4n3[B-](F)(F)[N+]3=C(c5ccc[nH]5)C=CC3=C4)CC2)nc1C [AZD1283-1-NB590]
NanoBRET Fold Response (FZD6; FZD6, 0.1μM): 1.01 | NanoBRET Fold Response (FZD6; FZD6, 1μM): 0.35 | NanoBRET Fold Response (SSTR2; SSTR2, 0.1μM): 1.02 | NanoBRET Fold Response (SSTR2; SSTR2, 1μM): 1.09 | NanoBRET Fold Response (CCR7; CCR7, 0.1μM): 1.03 | NanoBRET Fold Response (CCR7; CCR7, 1μM): 1.01 | NanoBRET Fold Response (HTR2A; 0.1μM): 0.96 | NanoBRET Fold Response (HTR2A; 1μM): 1.01

N#CN/C(=N\CCNC(=O)c1ccc(N)cc1)NCCCOc1cccc(CN2CCCCC2)c1 [Aminopotentidine (unmodified)]
NanoBRET Fold Response (HTR2A; other tracers/Aminopotentidine (unmodified), 0.1μM): 1.10 | NanoBRET Fold Response (HTR2A; other tracers/Aminopotentidine (unmodified), 1μM): 1.07

N#CN=C(NCCCOc1cccc(CN2CCCCC2)c1)NCCNC(=O)CCOCCOCCOCCOCCNC(=O)CCc1ccc2n1[B-](F)(F)[N+]1=C(c3ccc[nH]3)C=CC1=C2 [Aminopotentidine-2-NB590]
NanoBRET Fold Response (FZD6; FZD6, tracer 0.1μM): 1.03 | NanoBRET Fold Response (FZD6; FZD6, tracer 1μM): 1.03 | NanoBRET Fold Response (SSTR2; SSTR2, tracer 0.1μM): 0.98 | NanoBRET Fold Response (SSTR2; SSTR2, tracer 1μM): 1.02 | NanoBRET Fold Response (CCR7; CCR7, tracer 0.1μM): 0.96 | NanoBRET Fold Response (CCR7; CCR7, tracer 1μM): 1.01 | NanoBRET Fold Response (HTR2A; tracer 0.1μM): 0.98 | NanoBRET Fold Response (HTR2A; tracer 1μM): 1.02

CN(C)CCC=C1c2ccccc2CCc2ccc(C(=O)NCCNC(=O)CCOCCOCCOCCOCCNC(=O)CCc3ccc4n3[B-](F)(F)[N+]3=C(c5ccc[nH]5)C=CC3=C4)cc21 [Amitriptyline-a-2-NB590]
NanoBRET Fold Response (FZD6; tracer at 0.1μM): 1.10 | NanoBRET Fold Response (FZD6; tracer at 1μM): 1.03 | NanoBRET Fold Response (SSTR2; tracer at 0.1μM): 1.03 | NanoBRET Fold Response (SSTR2; tracer at 1μM): 1.03 | NanoBRET Fold Response (CCR7; tracer at 0.1μM): 1.01 | NanoBRET Fold Response (CCR7; tracer at 1μM): 0.99

CN(C)CCC=C1c2ccccc2CCc2ccc(C(=O)NCCNC(=O)CCOCCOCCOCCOCCNC(=O)CCc3ccc4n3[B-](F)(F)[N+]3=C(c5ccc[nH]5)C=CC3=C4)cc21 [Amitriptyline-b-2-NB590]
NanoBRET Fold Response (FZD6; [1]): 1.00 | NanoBRET Fold Response (FZD6; tracer at 1μM): 0.98 | NanoBRET Fold Response (SSTR2; tracer at 1μM): 0.99 | NanoBRET Fold Response (CCR7; [1]): 1.00 | NanoBRET Fold Response (CCR7; tracer at 1μM, listed as amitriptyline-b-2-NB590): 1.00

CN(CCC=C1c2ccccc2CCc2ccccc21)C(=O)CCOCCOCCOCCOCCNC(=O)CCc1ccc2n1[B-](F)(F)[N+]1=C(c3ccc[nH]3)C=CC1=C2 [Amitriptyline-e-2-NB590]
NanoBRET Fold Response (FZD6; tracer at 1μM): 1.09 | NanoBRET Fold Response (CCR7; tracer at 1μM): 1.03
